Experiments:
[1] = Enzymatic stability in rat brain homogenates; conditions: 50% (v/v) rat brain homogenates
Method: (§1) Fresh blood, obtained from adult male Wistar rats, was collected in sterile the 170 I.U. lithium heparin-coated tubes (Vacutainer, BD Bioscience, UK). Blood was centrifuged immediately at 2,000 g for 15 minutes (4° C.) and supernatant was collected and diluted to 50% (v/v) with PBS. Livers and brains were obtained from adult male Wistar rats, and the tissues were blotted to dryness, weighed, sliced into pieces, and homogenised with ice-cold PBS (in 2 mL of buffer g^−1 of tissue) using the glass homogeniser. Then, tissue homogenates were centrifuged at 4,300 g for 1 hour (4° C.) and the supernatants collected. Glioblastoma cell homogenates were prepared using U-87 MG cells. Cells were cultured in Eagle's Minimum Essential Medium (EMEM) supplemented with 10% (v/v) heat-inactivated fetal bovine serum (FBS), 1% (v/v) of non-essential amino acids (NEAA) and 1 mM of sodium pyruvate in T75 flasks with a surface area of 75 cm^2 and maintained in a humidified atmosphere of 5% CO2 at 37° C. Breast cancer cell homogenates were prepared using MDA-MB-231 cells. Cells were cultured in Dulbecco's Modified Eagle Medium (DMEM) supplemented with high levels of glucose (4.5 g/L), 10% (v/v) heat-inactivated fetal bovine serum (FBS), 1% (v/v) of non-essential amino acids (NEAA) and penicillin and streptomycin (500 units/mL) in T75 flasks with a surface area of 75 cm^2 and maintained in a humidified atmosphere of 5% CO2 at 37° C. Media was changed for both cell lines every 3 to 4 days. After reaching confluence, cells were washed twice with Hank's Balanced Salt Solution (HBSS) and incubated with ˜2 mL of TrypLE Enzyme at 37° C. for ˜3 minutes. Then, complete media were added, and cells were centrifuged at 1,000 rpm for 5 minutes in C-28A centrifuge (Boeco, Germany). U-87 MG or MDA-MB-231 cells (˜10×10^6 cells mL^−1) were re-suspended in ice-cold PBS, and homogenised with a 2×5 second pulses with the probe sonicator (UP200S Ultrasonic processor, SciMed, 200 watts, amplitude of 60%). Cell debris were removed by centrifugation at 2,000 rpm for 5 minutes (Jouan B4i, Thermo Scientific, Paisley, UK). Supernatant was collected and stored at −80° C. Total protein concentration in the homogenates was determined using the Bradford assay with bovine serum albumin as a standard. Diluted plasma, tissue or cell homogenates were pre-warmed during ˜30 minutes at 37° C. Peptide stock solutions (Glu-GnRH, goserelin acetate and TPGnRH, 5 mM in PBS, 500 μL) were prepared and added to the homogenate solutions (120 μL). […] Samples were vortexed for 15 minutes, centrifuged for 15 minutes at 12,000 rpm, and the supernatants were collected and analysed by RP-HPLC.

[2] = Critical aggregation concentration, thioflavin T assay; format: physicochemical; conditions: PBS pH 7.4
Method: Critical aggregation concentration (CAC) of TPGnRH was determined using pyrene ^1-4 and thioflavin T ^5, 6. The peptide solutions (3.5-700 μM) were prepared in phosphate-buffered saline (PBS, 0.01 M, pH 7.4) either by a dilution of a stock solution at 700 μM or solutions prepared at the required concentration. In the pyrene assay, pyrene was dissolved in methanol at 250 μM, dispersed into a black 96-well plate, and methanol was evaporated overnight. TPGnRH solutions were added to pyrene and incubated at 37° C. for 24 hours under stirring. Fluorescence spectra was recorded λex at 334 nm. For the thioflavin T assay, peptide solutions were added to freshly prepared thioflavin Tat 50 μM. All peptide samples were incubated during 5 minutes at room temperature and fluorescence was measured at λex at 450 nm and λem at 482 nm.
PAX:TPGnRH formulation at a molar ratio 1:7.36 was diluted in PBS (0.01 M, pH 7.4) from 22,000 to 7 μM of TPGnRH. Diluted formulations (20 μL) were added to 80 μL of Thioflavin T at 50 μM, incubated for 5 minutes at room temperature, and fluorescence was measured at λex 450 and λem 482 in a black 96-well plate using the Synergy H1 Microplate Reader (BioteK, Vermont, USA).

[3] = Release from 3D printed cellulose-sodium alginate bioinks; format: physicochemical; conditions: PBS
Method: Peptide nanofibers were embedded in cellulose nanocrystals and sodium alginate hydrogels. Cellulose nanocrystals were synthesised by sulphuric acid degradation (45% w/v, 150 mls) of cellulose (15 g, Western Hemlock) at 50° C. over 90 minutes under stirring. Cold-deionised water was used to quench reaction and acid was removed by centrifugation (4,000 rpm, 10 minutes). Cellulose nanocrystals were dialysed (12-14 kDa for cytochrome C, Medicell Ltd) over 5 L with 6 changes over 24 hours. Resulting suspension was probe sonicated (400 watt, 23% amplitude, 10 minutes) in 50 mLs aliquots. The resulting suspension was centrifuged (4,000 rpm, 10 minutes) and supernatant was stored in the refrigerator. Cellulose nanocrystals (CNCs, 4.5% w/w, 2 g) were loaded onto a syringe attached to a three-way valve, where a syringe loaded sodium alginate (6% w/w in 4.6% glucose, 1.7 g). The CNCs were injected in the sodium alginate syringe and mixed 10 times (in each direction). Sample was collected in one syringe and a new syringe containing calcium chloride (0.1M, 0.9 mL). Sample was pushed into calcium chloride and mixed 5 times (in each direction) prior collecting the gel in one syringe and loading in cartridges. Peptide nanofibers (5 mg) were dispersed in 0.9 mL of 0.1M calcium chloride and mixed as above when needed. Release of paclitaxel loaded and TPGnRH gels in PBS (1×, 7.4, 6 mLs) was quantified as per HPLC method described previously (Example 7, Table 2). After an initial burst release, a controlled release profile is observed with gradual slow release over days. Resulting inks can be utilised for the production of nanofiber loaded implants for tumour patients.

[4] = Isoelectric point by acid-base titration; format: physicochemical
Method: Both peptides were characterised by electrospray ionisation (positive/negative) mass spectrometry (MS), nuclear magnetic resonance (NMR), RP-HPLC, attenuated total reflectance Fourier-transformed infrared (ATR-FTIR) spectroscopy, thermogravimetric analysis (TGA) and differential scanning calorimetry (DSC). The isoelectric point of the peptides was also determined using an acid-base titration.

[5] = Enzymatic stability in rat liver homogenates; conditions: 50% (v/v) rat liver homogenates
Method: Fresh blood, obtained from adult male Wistar rats, was collected in sterile the 170 I.U. lithium heparin-coated tubes (Vacutainer, BD Bioscience, UK). Blood was centrifuged immediately at 2,000 g for 15 minutes (4° C.) and supernatant was collected and diluted to 50% (v/v) with PBS. Livers and brains were obtained from adult male Wistar rats, and the tissues were blotted to dryness, weighed, sliced into pieces, and homogenised with ice-cold PBS (in 2 mL of buffer g^−1 of tissue) using the glass homogeniser. Then, tissue homogenates were centrifuged at 4,300 g for 1 hour (4° C.) and the supernatants collected. Glioblastoma cell homogenates were prepared using U-87 MG cells. Cells were cultured in Eagle's Minimum Essential Medium (EMEM) supplemented with 10% (v/v) heat-inactivated fetal bovine serum (FBS), 1% (v/v) of non-essential amino acids (NEAA) and 1 mM of sodium pyruvate in T75 flasks with a surface area of 75 cm^2 and maintained in a humidified atmosphere of 5% CO2 at 37° C. Breast cancer cell homogenates were prepared using MDA-MB-231 cells. Cells were cultured in Dulbecco's Modified Eagle Medium (DMEM) supplemented with high levels of glucose (4.5 g/L), 10% (v/v) heat-inactivated fetal bovine serum (FBS), 1% (v/v) of non-essential amino acids (NEAA) and penicillin and streptomycin (500 units/mL) in T75 flasks with a surface area of 75 cm^2 and maintained in a humidified atmosphere of 5% CO2 at 37° C. Media was changed for both cell lines every 3 to 4 days. After reaching confluence, cells were washed twice with Hank's Balanced Salt Solution (HBSS) and incubated with ˜2 mL of TrypLE Enzyme at 37° C. for ˜3 minutes. Then, complete media were added, and cells were centrifuged at 1,000 rpm for 5 minutes in C-28A centrifuge (Boeco, Germany). U-87 MG or MDA-MB-231 cells (˜10×10^6 cells mL^−1) were re-suspended in ice-cold PBS, and homogenised with a 2×5 second pulses with the probe sonicator (UP200S Ultrasonic processor, SciMed, 200 watts, amplitude of 60%). Cell debris were removed by centrifugation at 2,000 rpm for 5 minutes (Jouan B4i, Thermo Scientific, Paisley, UK). Supernatant was collected and stored at −80° C. Total protein concentration in the homogenates was determined using the Bradford assay with bovine serum albumin as a standard. Diluted plasma, tissue or cell homogenates were pre-warmed during ˜30 minutes at 37° C. Peptide stock solutions (Glu-GnRH, goserelin acetate and TPGnRH, 5 mM in PBS, 500 μL) were prepared and added to the homogenate solutions (120 μL). PAX-loaded nanofibers prepared at a ratio of 1:7.36 [PAX:TPGnRH consisting of 3 μmol (2.56 mg mL^−1) of PAX, 22.02 μmol (31.46 mg mL^−1) of TPGnRH], as previously described, and further diluted in PBS to achieve a concentration of 5 mM of TPGnRH and 500 nM of PAX (120 μL) were added to the homogenates. At various time intervals, an aliquot was collected (80 μL) and added to ice-cold ACN (80 μL) to quench the enzymatic activity. Samples were stored at −80° C. for at least 3 hours to maximise protein precipitation. Samples were vortexed for 15 minutes, centrifuged for 15 minutes at 12,000 rpm, and the supernatants were collected and analysed by RP-HPLC.

[6] = Enzymatic stability in rat plasma; conditions: 50% (v/v) rat plasma
Method: as §1

[7] = target: T1, GnRH-R on U-87 MG cells (Homo sapiens, UniProt P30968); experiment: SMFS blocking experiments with free GnRH-R ligands; format: binding
T1 construct: endogenous in cells; host or cells: U-87 MG
T1 sequence (P30968 1-328): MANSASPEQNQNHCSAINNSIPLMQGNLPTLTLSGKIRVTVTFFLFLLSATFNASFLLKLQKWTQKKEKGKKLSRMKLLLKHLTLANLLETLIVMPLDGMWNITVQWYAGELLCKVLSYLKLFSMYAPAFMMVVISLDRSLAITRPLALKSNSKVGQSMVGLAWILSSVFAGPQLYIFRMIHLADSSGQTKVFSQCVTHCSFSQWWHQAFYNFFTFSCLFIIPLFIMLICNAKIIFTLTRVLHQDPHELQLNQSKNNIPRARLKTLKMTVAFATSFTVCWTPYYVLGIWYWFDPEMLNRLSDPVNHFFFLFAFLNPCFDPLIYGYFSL
Method: Blocking experiments were performed with different GnRH-R ligands (anti-GnRH-R antibody, Glu-GnRH, goserelin acetate, and TPGnRH). U-87 MG cells were analysed with tips functionalised with TPGnRH nanofibers and then the free ligands were added at a final concentration of 1 μg mL^−1 (anti-GnRH-R antibody) or 50 μg mL^−1 (Glu-GnRH, goserelin acetate and TPGnRH). U-87 MG cells treated with ligands were incubated for, at least, one hour at room temperature, and then the same cells were analysed with the same TPGnRH-functionalised tip at the same location in the cell.

CCCCCCCCCCCCCCCC(=O)Oc1ccc(C[C@H](NC(=O)[C@H](CO)NC(=O)[C@H](Cc2c[nH]c3ccccc23)NC(=O)[C@H](Cc2c[nH]cn2)NC(=O)[C@@H](N)CCC(=O)O)C(=O)NCC(=O)N[C@@H](CC(C)C)C(=O)N[C@@H](CCCNC(=N)N)C(=O)N2CCC[C@H]2C(=O)NCC(N)=O)cc1 [TPGnRH, Tyrosine (O-Palmitoyl)-Glu-GnRH]
k ([1]; analyte in brackets of label): 0.1781 min⁻¹
remaining at 8 h, 4.03 mM ([1]; male, Wistar, rat): > 80%
minimal CAC (self-assembly into long-axial nanofibers) [2]: 135 µM
% release from 3D printed bioink ([3]; 0 minutes): 0%
% release from 3D printed bioink ([3]; 1 minutes): 15.4 ± 9.6%
% release from 3D printed bioink ([3]; 5 minutes): 15.4 ± 7.8%
% release from 3D printed bioink ([3]; 10 minutes): 16.3 ± 11.5%
% release from 3D printed bioink ([3]; 15 minutes): 15.4 ± 4.6%
% release from 3D printed bioink ([3]; 30 minutes): 16.4 ± 4.9%
% release from 3D printed bioink ([3]; 45 minutes): 14.7 ± 6.9%
% release from 3D printed bioink ([3]; 60 minutes): 19.7 ± 8.5%
% release from 3D printed bioink ([3]; 90 minutes): 20.6 ± 4.6%
% release from 3D printed bioink ([3]; 120 minutes): 21.8 ± 9.4%
% release from 3D printed bioink ([3]; 240 minutes): 20.6 ± 10.7%
% release from 3D printed bioink ([3]; 360 minutes): 22.6 ± 7.4%
% release from 3D printed bioink ([3]; 1110 minutes): 24.5 ± 7.9%
% release from 3D printed bioink ([3]; 1440 minutes): 28.5 ± 9.8%
% release from 3D printed bioink ([3]; 2760 minutes): 32.1 ± 9.7%
Isoelectric point [4]: 6.28±0.51
Plateau ([5]; analyte in brackets of label): 359.3 µg/mL
kα ([5]; analyte in brackets of label): 0.1678 min⁻¹
kβ ([5]; analyte in brackets of label): 0.005339 min⁻¹
remaining at 8 h, 4.03 mM ([5]; male, Wistar, rat): ~50%
k ([6]; analyte in brackets of label): 0.0937 min⁻¹
remaining at 8 h, 4.03 mM ([6]; male, Wistar, rat): > 80%
Binding Probability of TPGnRH nanofiber tip to U-87 MG cells ([7]; after pre-incubation with the free ligand named as label (antibody 1 μg mL^−1, peptides 50 μg mL^−1)): 4.5%
Binding Probability of TPGnRH nanofiber tip to U-87 MG cells ([7]; before addition of the free ligand named as label (no pre-incubation)): 14.7%
